Test results published in patent US20050037074A1, “Delayed and sustained drug release” (priority 2001, published 2005).
Like-named read-outs stand apart in the source and are kept apart here. Marks after values point to notes of the source that are not given here.

What was measured:
[1] = system: ACTH; assay: Circadian hydrocortisone infusion in a patient with congenital adrenal hyperplasia (CAH), ACTH and 17-OH progesterone; assay type: in vivo, human
Description: A treatment regime involves the following protocol. A patient begins a treatment regime at 0830 having taken normal medication the day before. An indwelling cannula is inserted into the patient and basal blood samples are obtained to determine basal levels of cortisol. An infusion cannula is inserted for the administration of a bolus dose of hydrocortisone. Hydrocortisone is administered by infusion once basal samples taken (Patient details: body weight=113 kg; iv bolus 24 mg at 09:00 and follow the infusion rates changed on hourly bases). Total dose for the 1st day is 34.3 mg and 21.8 mg is given by 09:00 in the 2nd day). Samples are taken from the patient periodically from 0900 to 0900 and sampled hourly for cortisol, and ACTH
Dilute 100 mg of hydrocortisone in 2 ml of water for injection (concentration 1 mg/20 ul). Give bolus injection of 24 mg hydrocortisone (480 ul or 0.48 ml of hydrocortisone) using a 1 ml insulin syringe. Flush through with normal saline. For infusion put 50 mg of hydrocortisone (1 ml) in 49 mls normal saline=1 mg/ml and the run infusion according to the protocol above.
(§1) Serum was separated from blood samples immediately after collection and stored at minus 20° C. until analysis. Cortisol concentrations were measured using an ACS:180 automatic chemiluminescence system (Kiron Diagnostic Corporation, East Walpole, USA). Intra- and inter-assay coefficients of variation were less than 7.6%.
The method comprised the infusion of a patient suffering from CAH with hydrocortisone and the measurement of cortisol and ACTH levels. The patient is a person with CAH who is currently treated with oral hydrocortisone.
The infusion protocol for the patient is described in FIG. 5. […] Concomitant with the fall in ACTH the 17-OH progesterone fell from >500 nmol/l to a nadir of 67 nmol/l.

[2] = cited from earlier work
[3] = 20 mg hydrocortisone, cited from earlier work
[4] = Study 2: pharmacokinetics of individually tailored (BSA- or weight-adjusted) dose of oral HC in adrenal-insufficient patients; assay type: in vivo, human; conditions: fasted
Description: as §1
(§2) The study was carried out in two groups of adrenal-insufficient patients, and a group of healthy subjects. It was approved by the North Sheffield Local Research Ethics Committee, and all participants gave written informed consent. All patients had primary or secondary adrenal insufficiency based on a 0900 h serum cortisol level off treatment of less than 50 nmol/l. Normal controls were matched to the second group of patients for gender, age, height, weight and BSA within 10% of individual patients. Patients on oestrogen replacement were studied after having stopped oestrogen for 6 weeks.
Study 2—Pharmacokinetics of individually tailored dose of oral HC and testing of monitoring protocol: A further 10 patients (6M, 4F; 46-68 y; BMI 24.4-35.5 kg/m^2) were studied after receiving HC doses of 5.5 mg/m^2 BSA (to the nearest practical dose unit) at 0830 h, 1 h before breakfast. The dosage was derived from analysis of the Study 1 data to minimise inter-subject variability. A tablet cutter was used to adjust the HC dose in 2.5 mg quanta, i.e. quarters of 10 mg tablets. Thus, the absolute dose ranged from 7.5 to 12.5 mg. Blood sampling was as in Study 1. Serum concentrations of endogenous cortisol were measured in 7 healthy subjects (3M, 4F; 44-68 y; BMI 23.2-28.7 kg/m^2) at the same time points as the patients but without ingestion of HC.
Owing to the discrete nature of dose increments (multiples of 2.5 mg) 9 of the 10 patients who had taken the BSA-adjusted HC dose would still require the same dose if this had been weight-adjusted. Only one of the 10 patients needed a reduction in the HC dose from 12.5 mg to 10.0 mg to be in the nearest weight-adjusted dose range.
Therefore, in the part of our analysis that was related to body weight-adjusted doses, the serum cortisol levels of this patient were normalised to a 10.0 mg dose assuming concentration-dose proportionality.
(§3) Kinetic analysis of the serum cortisol concentration-time profiles in the patients was carried out using the software package, P-Pharm (version 1.5, InnaPhase, France), assuming mono-exponential disposition, first-order absorption, and a baseline correction to account for any endogenous levels of cortisol. Values of oral clearance (CL/F), volume of distribution (V/F), absorption rate constant (ka) and absorption lag time (tlag) were obtained from the model fitting and were used to derive other parameter values. Bias in dosing was assessed as the percentage difference in AUC values in patients compared to the AUC of endogenous cortisol in the healthy subjects over the same time period. Variability in the features of the serum cortisol concentration-time profile in the patients was expressed as coefficient of variation (CV). The effect of food intake in Study 1 was assessed using ANOVA, accounting for repeat individual measurements in the fasting state. Body surface area, weight, height, BMI, dose of HC, gender and age were also investigated as co-variables. All statistical analyses were carried out using SPSS version 10.0 (SPSS Inc, USA).

[5] = in vivo; cited from earlier work
[6] = Study 1: pharmacokinetics of 10 mg fixed dose oral HC in adrenal-insufficient patients; assay type: in vivo, human; conditions: for oral clearance / half-life: 10 mg oral, mean±S.E.M.; for Bias (AUC), % difference from healthy matched controls / Variability in AUC (C.V.) / Variability in Cmax (C.V.): Fixed 10 mg, listed as HC; for half-life: both sexes, human, serum, po, 10 mg, read-out: absorption half-life
Description: as §1, §2
Study 1—Pharmacokinetics of 10 mg fixed dose oral HC: Ten patients (5M, 5F, Age 32-72 yrs, BMI 21.7-35.8 kg/m^2) attended the Programmed Investigation Unit on 3 occasions. They discontinued HC replacement from noon on the day prior to the study and fasted from midnight. On the first and third occasions, the patients fasted throughout the study and, on the second occasion, they received a standard breakfast 20-30 minutes before receiving HC. On each of the 3 study days, patients received 10 mg of HC (Hydrocortone™, Merck, Sharp and Dohme) orally, between 0800-0900 h. Peripheral venous blood samples were taken immediately before dosage and at 20, 40, 50, 60, 70, 80, 90, 100, 120, 180, 240, 300 and 360 minutes after dosage; the serum was collected and stored pending assay for HC.
as §3

[7] = Weight-adjusted (0.12 mg/kg), if weight adjustment was assumed

- Bias (AUC), % difference from healthy matched controls ([4]; BSA-adjusted (5.5 mg/m^2)): 7.4%
- Variability in AUC (C.V.) ([4]; BSA-adjusted (5.5 mg/m^2)): 24%**
- Variability in Cmax (C.V.) ([4]; BSA-adjusted (5.5 mg/m^2)): 10%*
- Variability in AUC (C.V.) [4, 7]: 22%**
- Variability in Cmax (C.V.) [4, 7]: 7%*
- oral clearance ([6]; fasted): 0.270 ± 0.027 L/min
- oral clearance ([6]; fed): 0.226 ± 0.031 L/min
- Bias (AUC), % difference from healthy matched controls ([6]; fasted): 6.3%
- Variability in AUC (C.V.) ([6]; fasted): 50%
- Variability in Cmax (C.V.) ([6]; fasted): 31%
- Bias (AUC), % difference from healthy matched controls ([6]; fed): 24.5%
- Variability in AUC (C.V.) ([6]; fed): 45%
- Variability in Cmax (C.V.) ([6]; fed): 36%
- half-life ([6]; fasted): 15 ± 4 min
- half-life ([6]; fed): 43 ± 12 min
SMILES: C[C@]12CCC(=O)C=C1CC[C@@H]1[C@@H]2[C@@H](O)C[C@@]2(C)[C@H]1CC[C@]2(O)C(=O)CO [hydrocortisone, Hydrocortisone]
- 17-OH progesterone before the fall ([1]; CAH patient on conventional oral hydrocortisone therapy, start of infusion): > 500 nmol/L
- 17-OH progesterone nadir ([1]; CAH patient, during hydrocortisone infusion): 67 nmol/L
- morning ACTH after overnight increase in cortisol ([1]; CAH patient, infusion simulating delayed and sustained release hydrocortisone): prevents the high morning ACTH
- ACTH during the infusion ([1]; CAH patient, iv bolus 24 mg then circadian infusion): rapidly falls
- circulating cortisol bound to CBG ([2]; basal conditions, plasma): about 75%
- cortisol and metabolites conjugated in the liver and excreted in the urine ([2]; in vivo): Over 90%
- cortisol excreted in the urine unchanged ([2]; in vivo): less than 1%
- half-life ([3]; IV administration): 102 min
- total body clearance ([3]; IV administration): 18 L/h
- volume of distribution ([3]; IV administration): 34 L
- Oral bioavailablity ([3]; oral vs IV, average): 96%
- time to maximum levels (absorption) ([3]; oral): 1 h
- oral bioavailability [5]: 94-96%
